Laboratory results taken from US20250049727A1, “COMPOSITIONS FOR THE DELIVERY OF PAYLOAD MOLECULES TO AIRWAY EPITHELIUM” (ModernaTX, Inc., priority 2021, published 2025).
Structures can show the parent of a compound that is named as a salt.

Assay: Nanoparticle zeta potential (Malvern Zetasizer Nano ZS)
Format: physicochemical
Settings: LNP with sterol amine, core LNP Compound 18, DSPC, Cholesterol, and DMG-PEG 2K, [mRNA] 0.01 mg/mL in 0.1×PBS
Procedure: LNPs were prepared according to Example 2. Zeta potential was measured by diluting LNPs to [mRNA] 0.01 mg/mL in 0.1×PBS on a Malvern Zetasizer (Nano ZS).

CC(C)CCC[C@@H](C)[C@H]1CC[C@H]2[C@@H]3CC=C4C[C@@H](OC(=O)NCCCNCCCCN)CC[C@]4(C)[C@H]3CC[C@]12C [SA30, (3S,8S,9S,10R,13R,14S,17R)-10,13-Dimethyl-17-((R)-6-methylheptan-2-yl)-2,3,4,7,8,9,10,11,12,13,14,15,16,17-tetradecahydro-1H-cyclopenta[a]phenanthren-3-yl (3-((4-aminobutyl)amino)propyl)carbamate dihydrochloride]
Zeta Potential (β-sitosterol): 8.7 mV

CC(C)CCC[C@@H](C)[C@H]1CC[C@H]2[C@@H]3CC=C4C[C@@H](OC(=O)N(CCCN)CCCCNCCCN)CC[C@]4(C)[C@H]3CC[C@]12C [SA3, (3S,8S,9S,10R,13R,14S,17R)-10,13-dimethyl-17-((R)-6-methylheptan-2-yl)-2,3,4,7,8,9,10,11,12,13,14,15,16,17-tetradecahydro-1H-cyclopenta[a]phenanthren-3-yl (3-aminopropyl)(4-((3-aminopropyl)amino)butyl)carbamate, trihydrochloride salt]
Zeta Potential: 10.6 mV

CC(C)CCC[C@@H](C)[C@H]1CC[C@H]2[C@@H]3CC=C4C[C@@H](OC(=O)N(CCCN)CCCCN)CC[C@]4(C)[C@H]3CC[C@]12C [SA29, (3S,8S,9S,10R,13R,14S,17R)-10,13-Dimethyl-17-((R)-6-methylheptan-2-yl)-2,3,4,7,8,9,10,11,12,13,14,15,16,17-tetradecahydro-1H-cyclopenta[a]phenanthren-3-yl (4-aminobutyl)(3-aminopropyl)carbamate dihydrochloride]
Zeta Potential (β-sitosterol): 8.3 mV

CC(C)CCC[C@@H](C)[C@H]1CC[C@H]2[C@@H]3CC=C4C[C@@H](OC(=O)CCC(=O)N(CCCN)CCCCN)CC[C@]4(C)[C@H]3CC[C@]12C [SA31, (3S,8S,9S,10R,13R,14S,17R)-10,13-Dimethyl-17-((R)-6-methylheptan-2-yl)-2,3,4,7,8,9,10,11,12,13,14,15,16,17-tetradecahydro-1H-cyclopenta[a]phenanthren-3-yl 4-((4-aminobutyl)(3-aminopropyl)amino)-4-oxobutanoate dihydrochloride]
Zeta Potential (β-sitosterol): 8.6 mV

CC(C)CCC[C@@H](C)[C@H]1CC[C@H]2[C@@H]3CC=C4C[C@@H](OC(=O)NCCNC(=N)N)CC[C@]4(C)[C@H]3CC[C@]12C [SA23, (3S,8S,9S,10R,13R,14S,17R)-10,13-dimethyl-17-((R)-6-methylheptan-2-yl)-2,3,4,7,8,9,10,11,12,13,14,15,16,17-tetradecahydro-1H-cyclopenta[a]phenanthren-3-yl (2-guanidinoethyl)carbamate, hydrochloride salt]
Zeta Potential (β-sitosterol): 12.7 mV
